Experimental data from article PMC6061700 (Toxicological Sciences, 2018).
Read-outs that look alike come from different tables or passages of the source. Marks after values point to notes of the source that are not given here. One block for each compound: values may come before it.

Columns and labels:
[1] = tested on: Cellular Dynamics International [CDI] human stem cell-derived cardiomyocytes
[2] = tested on: human induced pluripotent stem cell-derived cardiomyocytes (hiPSC-CMs)
[3] = tested on: Axiogenesis [AXG] human stem cell-derived cardiomyocytes; conditions: for FPDc20 concentration (20% increase in FPDc): human; for EAD occurrence (proportion of replicates exhibiting EADs): AXG
[4] = tested on: Stanford Cardiovascular Institute [SCI] human stem cell-derived cardiomyocytes; conditions: for EAD occurrence (proportion of replicates exhibiting EADs): study 10, SCI, AXN
[5] = free clinical Cmax; ref Kramer et al. (2013); cited from earlier work
[6] = 20% increase in FPDc, median across qualified studies

EAD occurrence ([2]; across all studies, any concentration): No EADs
SMILES: CC(C)(Oc1ccc(Cl)cc1)C(=O)NC1C2CC3CC1CC(NS(C)(=O)=O)(C3)C2 (stereo not shown) [JNJ303]
prolongation of FPD and FPDc ([1]; single example study, CDI myocytes, highest concentration tested (300 nM)): ~10%

EAD occurrence (proportion of replicates exhibiting EADs) ([1]; human): 3/3 | FPDc20 concentration (20% increase in FPDc) [3]: 30 µM | FPDc20: median ([2]; human): 30 µM | FPDc20: span ([2]; human): 0.5 log unit | studies in which FPDc20 was detected ([2]; human): 3 of 8
SMILES: Cc1cccc(C)c1OCC(C)N (stereo not shown) [Mexiletine]

EAD occurrence (proportion of replicates exhibiting EADs) ([1]; study 6, CDI, AXN, 10 µM): 3/3 | EAD occurrence (proportion of replicates exhibiting EADs) ([1]; study 6, CDI, AXN, 30 µM): 3/3 | EAD occurrence (proportion of replicates exhibiting EADs) ([1]; study 7, CDI, MCS, 30 µM): 3/3 | EAD occurrence (proportion of replicates exhibiting EADs) ([1]; study 8, CDI, MCS, 30 µM): 5/5 | EAD occurrence (proportion of replicates exhibiting EADs) ([1]; study 9, CDI, ACA, 10 µM): 3/3 | EAD occurrence (proportion of replicates exhibiting EADs) ([1]; study 9, CDI, ACA, 30 µM): 2/3 | EAD occurrence (proportion of replicates exhibiting EADs) ([3]; study 4, MCS, 30 µM): 3/4 | FPDc20: median [2, 6]: 10 µM
SMILES: COc1ccccc1OCC(O)CN1CCN(CC(=O)Nc2c(C)cccc2C)CC1 (stereo not shown) [Ranolazine]
FPDc20 concentration (20% increase in FPDc) ([4]; human): 10 µM | EAD occurrence (proportion of replicates exhibiting EADs) ([4]; 10 µM): 1/3 | EAD occurrence (proportion of replicates exhibiting EADs) ([4]; 30 µM): 2/3

EAD occurrence (proportion of replicates exhibiting EADs) ([1]; study 5, CDI, AXN, 10 µM): 2/3 | EAD occurrence (proportion of replicates exhibiting EADs) ([1]; study 6, CDI, AXN, 1 µM): 3/3 | EAD occurrence (proportion of replicates exhibiting EADs) ([1]; study 6, CDI, AXN, 3 µM): 3/3 | EAD occurrence (proportion of replicates exhibiting EADs) ([1]; study 7, CDI, MCS, 3 µM): 1/3 | EAD occurrence (proportion of replicates exhibiting EADs) ([1]; study 7, CDI, MCS, 10 µM): 3/3 | EAD occurrence (proportion of replicates exhibiting EADs) ([1]; study 8, CDI, MCS, 10 µM): 4/4 | EAD occurrence (proportion of replicates exhibiting EADs) ([1]; study 9, CDI, ACA, 1 µM): 1/3 | EAD occurrence (proportion of replicates exhibiting EADs) ([1]; study 9, CDI, ACA, 3 µM): 3/3 | EAD occurrence (proportion of replicates exhibiting EADs) ([1]; study 9, CDI, ACA, 10 µM): 2/3 | EAD occurrence (proportion of replicates exhibiting EADs) ([3]; study 1, AXN, 10 µM): 3/3 | EAD occurrence (proportion of replicates exhibiting EADs) ([3]; study 2, AXN, 10 µM): 2/3 | EAD occurrence (proportion of replicates exhibiting EADs) ([3]; study 4, MCS, 10 µM): 3/3 | FPDc20: median [2, 6]: 1 µM | FPDc20: span ([2]; 20% increase in FPDc, span across qualified studies): 1 log unit
SMILES: C=C[C@H]1C[N@@]2CC[C@H]1C[C@@H]2[C@@H](O)c1ccnc2ccc(OC)cc12 [Quinidine]
FPDc20 concentration (20% increase in FPDc) ([4]; human): 1 µM | EAD occurrence (proportion of replicates exhibiting EADs) ([4]; 1 µM): 2/3 | EAD occurrence (proportion of replicates exhibiting EADs) ([4]; 3 µM): 3/3 | Free Drug (free Cmax) [5]: 3.237* µM

EAD occurrence (proportion of replicates exhibiting EADs) ([1]; study 6, CDI, AXN, 100 µM): 3/3 | EAD occurrence (proportion of replicates exhibiting EADs) ([1]; study 9, CDI, ACA, 30 µM): 1/3 | EAD occurrence (proportion of replicates exhibiting EADs) ([1]; study 9, CDI, ACA, 100 µM): 2/3 | FPDc20 concentration (20% increase in FPDc) [3]: 100 µM | FPDc20: median [2, 6]: 100 µM
SMILES: COc1c(N2C[C@@H]3CCCN[C@@H]3C2)c(F)cc2c(=O)c(C(=O)O)cn(C3CC3)c12 [Moxifloxacin]
FPDc20 concentration (20% increase in FPDc) ([4]; human): 30 µM | EAD occurrence (proportion of replicates exhibiting EADs) ([4]; 30 µM): 1/3 | EAD occurrence (proportion of replicates exhibiting EADs) ([4]; 100 µM): 2/3 | Free Drug (free Cmax) [5]: 10.96* µM

EAD occurrence [2]: No EADs | FPDc20: median ([2]; human): 0.1 µM | FPDc20: span ([2]; human): 0.5 log unit
SMILES: COC(=O)C1=C(C)NC(C)=C(C(=O)OC)C1c1ccccc1[N+](=O)[O-] [Nifedipine]
FPDc20 concentration (20% decrease in FPDc) ([4]; human): 0.3 µM

EAD occurrence (proportion of replicates exhibiting EADs) ([1]; study 5, CDI, AXN, 1 µM): 2/4 | EAD occurrence (proportion of replicates exhibiting EADs) ([1]; study 5, CDI, AXN, 3 µM): 1/4 | EAD occurrence (proportion of replicates exhibiting EADs) ([1]; study 6, CDI, AXN, 1 µM): 1/3 | EAD occurrence (proportion of replicates exhibiting EADs) ([1]; study 6, CDI, AXN, 3 µM): 1/3 | EAD occurrence (proportion of replicates exhibiting EADs) ([1]; study 7, CDI, MCS, 3 µM): 3/3 | EAD occurrence (proportion of replicates exhibiting EADs) ([1]; study 8, CDI, MCS, 3 µM): 4/4 | EAD occurrence (proportion of replicates exhibiting EADs) ([1]; study 9, CDI, ACA, 3 µM): 3/3 | EAD occurrence (proportion of replicates exhibiting EADs) ([3]; study 4, MCS, 3 µM): 1/3 | FPDc20: median [2, 6]: 1 µM
SMILES: O=C(NCC1CCCCN1)c1cc(OCC(F)(F)F)ccc1OCC(F)(F)F (stereo not shown) [Flecainide]
FPDc20 concentration (20% increase in FPDc) ([4]; human): 1 µM | EAD occurrence (proportion of replicates exhibiting EADs) ([4]; 1 µM): 1/3 | EAD occurrence (proportion of replicates exhibiting EADs) ([4]; 3 µM): 2/3
